Experimental findings from patent US8609173B2, “Compositions comprising sweetness enhancers and methods of making them” (Senomyx Inc., priority 2008, dated 2013) are described below.

Data set [1] is described as follows: Preparation of liquid solutions in food grade solvents (dissolution trials, Table 3). The format is physicochemical. Conditions: for solubility rate: propylene glycol. On the procedure: Liquid compositions of 3-(4-amino-2,2-dioxide-1H-benzo[c][1,2,6]thiadiazin-5-yloxy)-2′,2′-dimethyl-N-propylpropanamide were prepared using a variety of different solvents (Table 3). It was discovered by increasing the pH of the solution with alkaline substance, such as alkali metal salt, one can increase the concentration level of 3-(4-amino-2,2-dioxide-1H-benzo[c][1,2,6]thiadiazin-5-yloxy)-2′,2′-dimethyl-N-propylpropanamide in solutions. Examples of suitable alkali metal salt include, but are not limited to, sodium bicarbonate, sodium carbonate, sodium hydroxide, and the like. In propylene glycol, sodium bicarbonate will raise pH from 7.8 to 8.5; the solubility rate of 3-(4-amino-2,2-dioxide-1H-benzo[c][1,2,6]thiadiazin-5-yloxy)-2′,2′-dimethyl-N-propylpropanamide will be increased from 0.5% to 1.0%.
• 1. Weigh a desired amount of compound and sodium bicarbonate. • 2. Calculate the volume of food grade solvent(s) (water, ethyl alcohol, isopropyl alcohol, butylenes glycol, propylene glycol, triacetin, glycerol, vegetable oils (soy, corn, peanut, persic, cottonseed, sesame), olive oil, fractionated coconut oil, neobee, tributyrin, mono and diglycerides, ethyl lactate, ethyl levulinate, butyl stearate, triethyl citrate, diethyl succinate, diethyl malonate, acetic acid, lactic acid, phosphoric acid, benzyl alcohol, tetrahydrofurfural alcohol, D-limonene, γ-valerolactone, butyrolactone, polyethylene glycol sorbitan monostearate (Tween®), etc. to add to the dry, weighed out compound to make a concentration of 1,000-50,000 ppm (0.1-5%). • 3. Pre heat the appropriate amount of solvent to 100 to 200° F. while stirring at 1,100 rpm on a hot plate using a stir bar. • 4. Add pre-weighed compound to heated solvent (when temperature reaches 100 to 200° F.). • 5. Continue heating solvent and inspect to insure complete dissolution, return to the hot plate if necessary. Preparation Procedure for Water as a Solvent:
Preparation Procedure of the Liquid Diluted Form (without Heat): • 1. Weigh desire amount of compound. • 2. Calculate the volume of food grade solvent(s) (water, ethanol, propylene glycol, triacetin, glycerol, neobee, DI water, phosphoric acid, lactic acid, olive oil) to add to the dry, weighed out compound to make a concentration of 1,000-50,000 ppm (0.1-5%). • 3. Stir solvent at 1,100 rpm on a hot plate using a stir bar. • 4. Add pre-weighed compound to solvent. • 5. Continue stirring and inspect to insure complete dissolution, return to the hot plate if necessary.

The test system of data set [2] is Panelists. Description: Paired comparison taste test, cola composition. Format: in vivo, Human. Conditions: for Sweetness comparison (conclusion): p>0.10; for Sample selected as sweeter by panelists, Total: vs Cola with 100% Sucrose, n = 39. On the procedure: Cola compositions were prepared using the following ingredients and evaluated for sweetness and/or lingering taste.
The cola emulsion, above, contains the ingredients below:
Panelists evaluated two solutions in a paired comparison taste test procedure and were instructed to select the sweeter of the two samples.

In data set [3] the test system is Panelists. Description: Paired comparison human taste test, chocolate milk. The format is in vivo. On the procedure: Chocolate beverage powder can be prepared using, for example, the following ingredients and reconstituted in milk.
A KitchenAide mixer is equipped with a wire whip attachment and used for mixing sugar and salt for 5 seconds. Lecithin is added and the resulting mixture is mixed for an additional 5 seconds. Cocoa, maltodextrin, and vanillin are added and the mixture is mixed for another 10 seconds.
Chocolate milk preparations were prepared by combining a chocolate beverage mixture with milk and the appropriate amount of sugar, or sugar and 3-(4-amino-2,2-dioxide-1H-benzo[c][1,2,6]thiadiazin-5-yloxy)-2′,2′-dimethyl-N-propylpropanamide. 75.0 grams of Full Sugar Chocolate Beverage Powder was mixed into 250 mls of cold (40° F.) 2% lowfat milk and mixed with a wire whip until dissolved. 45.5 grams of the 50% Sugar Chocolate Beverage Powder was mixed into 250 mls of cold (40° F.) 2% lowfat milk and mixed with a wire whip until the powder was dissolve. The Compound A was dissolved into a 0.10% concentration level in propylene glycol and added to the chocolate milk, mixed with a wire whip until homogenous, about 2 minutes.

In the next data set the test system is External panelists. The experiment in a line: Paired comparison test (2-alternative forced choice), Example 3B, sucrose. Format: in vivo, Human. The conditions noted are these: 9% sucrose chosen, vs 6% Sucrose + 10 ppm (35.29 μM) compound; n = 28. On the procedure: Several types of sensory tests were used to determine the efficacy of 5-(neopentyloxy)-1H-benzo[c][1,2,6]thiadiazin-4-amino-2,2-dioxide in enhancing sweetness of sucrose. Two types of tests were conducted: • 1) Sensory scaling tests were performed using a 15-point percent sucrose equivalence scale for sweetness in order to evaluate sweetness enhancement 5-(neopentyloxy)-1H-benzo[c][1,2,6]thiadiazin-4-amino-2,2-dioxide in sucrose, or in fructose. • 2) Paired comparison tests (2-alternative forced choice difference tests) were used to determine sweetness equivalence for solutions of sucrose vs. 5-(neopentyloxy)-1H-benzo[c][1,2,6]thiadiazin-4-amino-2,2-dioxide or buffer vs. 5-(neopentyloxy)-1H-benzo[c][1,2,6]thiadiazin-4-amino-2,2-dioxide. Stimuli:
Panelists performed 2 directional paired comparison tests to determine which sample was sweeter. The test compared the sweetness intensity of 9% sucrose to that of 6% sucrose+10 ppm (35.29 μM) 5-(neopentyloxy)-1H-benzo[c][…]thiadiazin-4-amino-2,2-dioxide. Panelists were also to comment on the difficulty of the test and if any off tastes were perceived. Samples were completely randomized.

As for `CCCNC(=O)C(C)(C)COc1cccc2c1C(N)=NS(=O)(=O)N2` [3-(4-amino-2,2-dioxide-1H-benzo[c][1,2,6]thiadiazin-5-yloxy)-2′,2′-dimethyl-N-propylpropanamide], the “Results (dissolution)” value was “Did not go into solution” in data set [1] (Ethanol, 1.0%, Ambient/over 30 minutes); “Did not go into solution” in data set [1] (Glycerol, 0.1%, Ambient/over 30 minutes); “Did not go into solution” in data set [1] (Lactic Acid, 1.0%, Ambient/over 30 minutes); “Did not go into solution” in data set [1] (Neobee, 0.1%, 185° F./over 30 minutes); “Did not go into solution” in data set [1] (Neobee, 0.1%, Ambient/over 30 minutes); “Did not go into solution” in data set [1] (Olive Oil (Star Original), 0.1%, 150° F./over 30 minutes). In addition, the “Results (dissolution)” value in data set [1] (Olive Oil (Star Original), 0.1%, Ambient/over 30 minutes) is reported as “Did not go into solution”; in data set [1] (Phosphoric acid, 0.1%, Ambient/over 30 minutes), “Did not go into solution”; in data set [1] (Propylene Glycol, 0.3%, Ambient/over 30 minutes) it was “Did not go into solution”; in data set [1] (Propylene Glycol, 0.5%, Ambient/over 30 minutes), “Did not go into solution”; in data set [1] (Propylene Glycol, 1.0%, Ambient/over 30 minutes), “Did not go into solution”; in data set [1] (Triacetin, 0.1%, Ambient/over 30 minutes), “Did not go into solution”. The values for the concentration obtained entry in data set [1] (in ethanol) and in data set [1] (in water) were “about 0.1 wt. %” and 10 ppm, respectively. In data set [1] (in propylene glycol), this compound showed a concentration readily obtained of at most 0.5%. Further, the solubility rate in data set [1] (pH 7.8, before sodium bicarbonate) turned out to be 0.5%; in data set [1] (sodium bicarbonate raises pH to 8.5) it was 1.0%. Besides, the “Sweetness comparison (conclusion)” value was “no significant difference in sweetness” in the data set on Panelists [2] (60% sucrose cola + 3 ppm (8.47 μM) compound vs 100% sucrose cola); “no significant difference in sweetness” in the data set with Panelists [2] (66% sucrose cola + 3.19 ppm (8.47 μM) compound vs 100% sucrose cola); “not significantly different in sweetness” in the data set on Panelists [3] (chocolate milk with 50% Sugar + compound (7 ppm/(20 μM)) vs full sugar, p>0.10). Besides, the “Sample selected as sweeter by panelists, Total” value with Panelists [2] (Cola with 60% Sucrose + 3 ppm (8.47 μM) compound chosen) was determined as 18; in the data set on Panelists [2] (Cola with 66% Sucrose + 3.19 ppm (8.47 μM) compound chosen), 22; with Panelists [3] (Chocolate Milk with 50% Sugar + compound (7 ppm/(20 μM)) chosen, vs 100% Sugar, n = 51), 28. Besides, in the data set on Panelists [2] (cola with reduced sucrose + 3 ppm or 3.19 ppm compound vs 100% sucrose cola), the “Sweetness comparison (statement)” value is reported as “approximately the same sweetness”.
Take `OC[C@H]1O[C@@](CO)(O[C@H]2O[C@H](CO)[C@@H](O)[C@H](O)[C@H]2O)[C@@H](O)[C@@H]1O` [Sucrose, sucrose]: the “Sample selected as more sweet by panelists, Total” value with External panelists stood at 9.
